According to patent US9861625B2, “Methods and compositions for treating cancer through inhibition of PI3K” (Duke University, priority 2014, dated 2018):

Tests used:
[1] = system: Ly8 cells and normal human B cells (tonsil lymphocytes); assay: Toxicity in Ly8 cells compared to normal B cells (alamar blue); assay type: cell-based; conditions: alone and in combination; 36 hours
Experimental: BEZ235 was tested in combination with the PAK1 inhibitor IPA-3 using Calcusyn software by applying the Chou-Talalay method. BJAB, HBL1, HBL2, HT, Ly8, and Riva cells were tested, as were normal tonsil lymphocytes. Ly8 and tonsillar lymphocytes were cultured in 96-well plates (approximately 500,000 cells/ml) for 36 hours in Iscove's modified Dulbecco's medium (IMDM) with 20% human AB serum. Viability was assessed with alamar blue dye and normalized to the lowest concentration of BEZ235 in each group.
Finally, BEZ235 and IPA-3 were administered separately and concurrently to normal human B cells to ascertain a therapeutic window between normal and malignant cells.

[2] = system: nine different cells lines; assay: IPA-3 as a single agent in nine cell lines; assay type: cell-based
Experimental: The 3-(4,5-dimethylthiazol-2-yl)-2,5-diphenyltetrazolium bromide (MTT) cell viability assay was used to determine cell viability in response to drug treatment. Five replicates per concentration tested were carried out in serial dilutions with a total of ten concentrations with a 50% reduction in drug concentration per dilution for each plate. A total of 15 μl of MTT reagent was added to each drug-treated well and incubated for three hours in 37° C. Detergent was added to each drug-treated well and incubated overnight at room temperature without exposure to light. Absorbance was measured at 570 nm using a plate reader from Tecan Group. The IC50 concentration was determined using the publicly available ED50 plus v1.0 software program.
Small-molecule inhibition of PAK1 with IPA-3 achieved consistent results. PAK1 inhibition with IPA-3 was tested in nine different cells lines, both individually and in combination with BEZ235.

`Oc1ccc2ccccc2c1SSc1c(O)ccc2ccccc12` [IPA-3] was tested, and the “toxicity in Ly8 cells as compared to normal B cells” value [1] was “selective toxicity”, the “cell death at 10 μmol/L, upper end of the range” value ([2]; 10 μmol/L) was “no cell death” and the IC50 ([2]; nine cell lines, read-out: observed IC50 values, lower end of range) was no less than 697 nM.
